This is an account of results in patent publication US6610689B2, “HIV protease inhibitors based on amino acid derivatives” (priority 2001, dated 2003).

Usually Ki stands for a measure of affinity in units of concentration, obtained from inhibition or displacement.

This assay deals with T1, HIV protease (Human immunodeficiency virus type 1 group M subtype B, UniProt P04585).
T1 construct: A third viral enzyme known as protease then cleaves the polyproteins
The assay is described as follows: Enzymatic Assay for Determining the Inhibition Constant (Ki) of Synthetic Compounds Targeting the HIV Protease (fluorometric FRET assay). It counts as biochemical. An excerpt: Enzymatic Assay for Determining the Inhibition Constant (Ki) of Synthetic Compounds Targeting the HIV Protease
This is a fluorometric assay based on the cleavage by protease of a substrate carrying a donor group (EDANS) and an acceptor group (DABCYL) on each side of the cleavage site, interacting together through fluorescence resonance energy transfer (FRET) as described by Matayoshi et al. (Science 247:[…], 1990).
After calculation of Vo and Vi, the inhibition constant (Ki) of the compound is determined using the equation of Henderson: [formula]
where Vo=the enzyme's initial velocity
Vi=the enzyme velocity in the presence of the inhibitory compound,
[I]=inhlibitor concentration, [S]=substrate concentration,
Km=Michaelis-Menten constant and Kiapp=apparent Ki
Graphs are traced and the Ki determined using GraphPad Prism software v. 3.0.

The mark [1] stands for this setting: Anti-protease activity of Ne-amino acid substituted L-lysine derivatives and analogs of formula I, read-out: Ki.

Each structure is given as a SMILES string. Read-outs that look alike come from different tables or passages of the source.

For `Cc1ccc(S(=O)(=O)N(CC(C)C)[C@@H](CCCCNC(=O)[C@@H]2C[C@@H](O)CN2S(=O)(=O)c2ccccc2)C(=O)O)cc1` (relative stereo) [Example 17, Nα-Isobutyl-Nα-(4-methylbenzenesulfonyl)-Nε-[N′α-(benzenesulfonyl)-4-trans-hydroxy-L-prolyl]-L-lysine], the Ki (Anti-protease activity, read-out: Ki) was 55 nM.
On to `Cc1ccc(S(=O)(=O)N[C@@H](Cc2ccccc2)C(=O)NCCCC[C@@H](C(=O)O)N(CC(C)C)S(=O)(=O)c2ccc(C)cc2)cc1` [Example 1, Nα-Isobutyl-Nα-(4-methylbenzenesulfonyl)-Nε-[N′α-(4-methylbenzenesulfonyl)-L-phenylalanyl]-L-lysine], for which the Ki worked out at 1.1 nM.
On the same count and under the same terms, under `Cc1ccc(S(=O)(=O)N[C@@H](Cc2c[nH]c3ccccc23)C(=O)NCCCC[C@@H](C(=O)O)N(CC(C)C)S(=O)(=O)c2ccc(C)cc2)cc1` [Example 2, Nα-Isobutyl-Nα-(4-methylbenzenesulfonyl)-Nε-[N′α-(4-methylbenzenesulfonyl)-L-tryptophanyl]-L-lysine] stands 0.513 nM; under `CC(=O)Nc1ccc(S(=O)(=O)N[C@@H](Cc2ccccc2)C(=O)NCCCC[C@@H](C(=O)O)N(CC(C)C)S(=O)(=O)c2ccc(C)cc2)cc1` [Example 3, Nα-Isobutyl-Nα-(4-methylbenzenesulfonyl)-Nε-[N′α-(4-acetamidobenzenesulfonyl)-L-phenylalanyl]-L-lysine], 0.977 nM.
The same measure, in the same setting: the result for `Cc1ccc(S(=O)(=O)N(CC(C)C)[C@@H](CCCCNC(=O)[C@H](Cc2c[nH]c3ccccc23)NS(=O)(=O)c2ccccc2)C(=O)O)cc1` [Example 4, Nα-Isobutyl-Nα-(4-methylbenzenesulfonyl)-Nε-(N′α-benzenesulfonyl-L-tryptophanyl)-L-lysine] reads 1 nM.
Regarding `CC(C)CN([C@@H](CCCCNC(=O)[C@H](Cc1c[nH]c2ccccc12)NS(=O)(=O)c1ccc(N)cc1)C(=O)O)S(=O)(=O)c1ccc(N)cc1` [Example 5, Nα-Isobutyl-Nα-(4-aminobenzenesulfonyl)-Nε-[N′α-(4-aminobenzenesuifonyl)-L-tryptophanyl]-L-lysine], the affinity corresponds to a Ki of 0.459 nM.
Consider `Cc1ccc(S(=O)(=O)N(CC(C)C)[C@@H](CCCCNC(=O)[C@H](Cc2c[nH]c3ccccc23)NS(=O)(=O)c2ccc([N+](=O)[O-])cc2)C(=O)O)cc1` [Example 6, Nα-Isobutyl-Nα-(4-methylbenzenesulfonyl)-Nε-[N′α-(4-nitrobenzenesulfonyl)-L-tryptophanyl]-L-lysine], for which the affinity, expressed as Ki, was 7.3 nM.
Still for that read-out and setting: the result for `Cc1ccc(S(=O)(=O)N[C@H](Cc2ccccc2)C(=O)NCCCC[C@@H](C(=O)O)N(CC(C)C)S(=O)(=O)c2ccc(C)cc2)cc1` [Example 7, Nα-Isobutyl-Nα-(4-methylbenzenesulfonyl)-Nε-[N′α-(4-methylbenzenesulfonyl)-D-phenylalanyl]-L-lysine] reads 120 nM; that for `Cc1ccc(S(=O)(=O)N(CC(C)C)[C@@H](CCCCNC(=O)[C@H](Cc2ccccc2)NS(=O)(=O)c2ccccc2)C(=O)O)cc1` [Example 8, Nα-Isobutyl-Nα-(4-methylbenzenesulfonyl)-Nε-(N′α-benzenesulfonyl-L-phenylalanyl)-L-lysine], 1.9 nM; that for `Cc1ccc(S(=O)(=O)N(CC(C)C)[C@@H](CCCCNC(=O)[C@H](Cc2ccccc2)NS(=O)(=O)c2ccc(Cl)cc2)C(=O)O)cc1` [Example 9, Nα-Isobutyl-Nα-(4-methylbenzenesulfonyl)-Nε-[N′α-(4-chlorobenzenesulfonyl)-L-phenylalanyl]-L-lysine], 6.8 nM.
`Cc1ccc(S(=O)(=O)N(CC(C)C)[C@@H](CCCCNC(=O)[C@H](Cc2ccccc2)NS(=O)(=O)c2ccc([N+](=O)[O-])cc2)C(=O)O)cc1` [Example 10, Nα-Isobutyl-Nα-(4-methylbenzenesulfonyl)-Nε-[N′α-(4-nitrobenzenesulfonyl)-L-phenylalanyl]-L-lysine] registered a Ki of 18 nM.
For the compound `Cc1ccc(S(=O)(=O)N(CC(C)C)[C@@H](CCCCNC(=O)[C@H](Cc2c[nH]c3ccccc23)NS(=O)(=O)c2ccc(N)cc2)C(=O)O)cc1` [Example 12, Nα-Isobutyl-Nα-(4-methylbenzenesulfonyl)-Nε-[N′α-(4-aminobenzenesulfonyl)-L-tryptophanyl]-L-lysine], under setting [1], the Ki amounted to 0.311 nM.
Turning to `CCC[C@H](NS(=O)(=O)c1ccccc1)C(=O)NCCCC[C@@H](C(=O)O)N(CC(C)C)S(=O)(=O)c1ccc(C)cc1` [Example 14, Nα-Isobutyl-Nα-(4-methylbenzenesulfonyl)-Nε-[N′α-(benzenesulfonyl)-L-norvalyl]-L-lysine], the Ki was 185 nM.
The same measure, in the same setting: the result for `CCCC[C@H](NS(=O)(=O)c1ccccc1)C(=O)NCCCC[C@@H](C(=O)O)N(CC(C)C)S(=O)(=O)c1ccc(C)cc1` [Example 15, Nα-Isobutyl-Nα-(4-methylbenzenesulfonyl)-Nε-[N′α-(benzenesulfonyl)-L-norleucyl]-L-lysine] reads 34 nM.
Take `Cc1ccc(S(=O)(=O)N(CC(C)C)[C@@H](CCCCNC(=O)[C@H](CC(C)C)NS(=O)(=O)c2ccc([N+](=O)[O-])cc2)C(=O)O)cc1` [Example 16, Nα-Isobutyl-Nα-(4-methylbenzenesulfonyl)-Nε-[N′α-(4-nitrobenzenesulfonyl)-L-leucyl]-L-lysine]: the affinity, expressed as Ki, was 34 nM.
Same read-out and setting: under `Cc1ccc(S(=O)(=O)N(CC(C)C)[C@@H](CCCCNC(=O)[C@H](Cc2ccccc2)NS(=O)(=O)c2ccc(F)cc2)C(=O)O)cc1` [Example 18, Nα-Isobutyl-Nα-(4-methylbenzenesulfonyl)-Nε-[N′α-(4-fluorobenzenesulfonyl)-L-phenylalanyl]-L-lysine] stands 8.3 nM; under `Cc1ccc(S(=O)(=O)N(CC(C)C)[C@@H](CCCCNC(=O)[C@H](Cc2ccccc2)NS(=O)(=O)c2ccc3ccccc3c2)C(=O)O)cc1` [Example 19, Nα-Isobutyl-Nα-(4-methylbenzenesulfonyl)-Nε-[N′α-(2-naphthylsulfonyl)-L-phenylalanyl]-L-lysine], 11 nM.
On the same count and under the same terms, the result for `Cc1ccc(S(=O)(=O)NCC(=O)NCCCC[C@@H](C(=O)O)N(CC(C)C)S(=O)(=O)c2ccc(C)cc2)cc1` [Example 21, Nα-Isobutyl-Nα-(4-methylbenzenesulfonyl)-Nε-[N′α-(4-methylbenzenesulfonyl)-glycyl]-L-lysine] reads 21 nM; that for `Cc1ccc(S(=O)(=O)N(CC(C)C)[C@@H](CCCCNC(=O)[C@H](CC(C)C)NS(=O)(=O)c2ccccc2)C(=O)O)cc1` [Example 22, Nα-Isobutyl-Nα-(4-methylbenzenesulfonyl)-Nε-(N′α-benzenesulfonyl-L-leucyl]-L-lysine], 29 nM; that for `Cc1ccc(S(=O)(=O)N(CC(C)C)[C@@H](CCCCNC(=O)[C@H](Cc2ccccc2)NS(=O)(=O)c2ccc(C(F)(F)F)cc2)C(=O)O)cc1` [Example 23, Nα-Isobutyl-Nα-(4-methylbenzenesulfonyl)-Nε-[N′α-(4-trifluoromethylbenzenesulfonyl)-L-phenylalanyl]-L-lysine], 12 nM.
On the same count and under the same terms, under `Cc1ccc(S(=O)(=O)N(CC(C)C)[C@@H](CCCCNC(=O)[C@H](Cc2ccccc2)NS(=O)(=O)c2cccs2)C(=O)O)cc1` [Example 24, Nα-Isobutyl-Nα-(4-methylbenzenesulfonyl)-Nε-[N′α-(2-thiophenesulfonyl)-L-phenylalanyl]-L-lysine] stands 0.506 nM; under `Cc1ccc(S(=O)(=O)N(CC(C)C)[C@@H](CCCCNC(=O)[C@H](CC(N)=O)NS(=O)(=O)c2ccccc2)C(=O)O)cc1` [Example 25], 5.3 nM.
Take `Cc1ccc(S(=O)(=O)N[C@@H](Cc2ccc([N+](=O)[O-])cc2)C(=O)NCCCC[C@@H](C(=O)O)N(CC(C)C)S(=O)(=O)c2ccc(C)cc2)cc1` [Example 26, Nα-Isobutyl-Nα-(4-methylbenzenesulfonyl)-Nε-[N′α-(4-methylbenzenesulfonyl)-L-4-nitrophenylalanyl]-L-lysine]: the Ki under setting [1] worked out at 2.6 nM.
As to `Cc1ccc(S(=O)(=O)N[C@H](C(=O)NCCCC[C@@H](C(=O)O)N(CC(C)C)S(=O)(=O)c2ccc(C)cc2)c2ccccc2)cc1` [Example 27, Nα-Isobutyl-Nα-(4-methylbenzenesulfonyl)-Nε-[N′α-(4-methylbenzenesulfonyl)-L-phenylglycyl]-L-lysine], affinity was put at a Ki of 11 nM.
Compound `CC(=O)Nc1ccc(S(=O)(=O)N[C@@H](Cc2ccccc2)C(=O)NCCCC[C@@H](C(=O)O)N(CC(C)C)S(=O)(=O)c2ccc([N+](=O)[O-])cc2)cc1` [Example 28, Nα-Isobutyl-Nα-(4-nitrobenzenesulfonyl)-Nε-[N′α-(4-acetamidobenzenesulfonyl)-L-phenylalanyl]-L-lysine] came in with a Ki of 9.3 nM.
In turn, `CC(C)CN([C@@H](CCCCNC(=O)[C@H](Cc1ccccc1)NS(=O)(=O)c1cccs1)C(=O)O)S(=O)(=O)c1ccc([N+](=O)[O-])cc1` [Example 29, Nα-Isobutyl-Nα-(4-nitrobenzenesulfonyl)-Nε-[N′α-(2-thiophenesulfonyl)-L-phenylalanyl]-L-lysine] registered a Ki of 11 nM.
The compound `CC(=O)N[C@@H](Cc1ccccc1)C(=O)NCCCC[C@@H](C(=O)O)N(CC(C)C)S(=O)(=O)c1ccc(C)cc1` [Example 30, Nα-Isobutyl-Nα-(4-methylbenzenesulfonyl)-Nε-(N′α-acetyl-L-phenylalanyl)-L-lysine] had a Ki of 0.483 nM.
In the case of `Cc1ccc(S(=O)(=O)N(CC(C)C)[C@@H](CCCCNC(=O)[C@H](Cc2ccccc2)NC(=O)OCc2ccccc2)C(=O)O)cc1` [Example 31, Nα-Isobutyl-Nα-(4-methylbenzenesulfonyl)-Nε-(N′α-benzyloxycarbonyl-L-phenylalanyl)-L-lysine], the Ki turned out to be 2.3 nM.
